Results from patent publication US4695648A, “Novel arylacetic acid derivatives” (Pharmacia AB, priority 1984, dated 1987).

target: T1, 15-hydroxy-prostaglandin dehydrogenase (PGDH) (Homo sapiens, UniProt P15428); test: Inhibition of 15-Hydroxy Prostaglandin Dehydrogenase (in vitro, cell-free preparations of human placenta, radioactive PGF2 degradation); format: biochemical; conditions: 50% inhibition of degradation of radioactive PGF2 vs controls without inhibitor
T1 construct: cell-free preparations of human placenta (containing PGDH); from tissue; host or cells: human placenta, cell-free preparation
T1 sequence (P15428 1-266): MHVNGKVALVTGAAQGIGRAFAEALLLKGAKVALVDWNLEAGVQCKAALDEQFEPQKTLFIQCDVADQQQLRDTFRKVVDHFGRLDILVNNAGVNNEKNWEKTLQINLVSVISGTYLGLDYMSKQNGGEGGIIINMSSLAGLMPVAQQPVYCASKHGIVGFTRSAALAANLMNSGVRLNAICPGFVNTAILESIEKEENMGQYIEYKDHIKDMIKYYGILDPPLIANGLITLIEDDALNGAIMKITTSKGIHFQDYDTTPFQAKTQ
Method: Radioactive prostaglandin F2 (PGF2 ) is incubated with cell-free preparations of human placenta (containing PGDH) as desribed by Hoult and Moore, Brithish Journal of Pharmacology Vol. 61 (1977), p. 615. After a suitable incubation period the prostaglandins are extracted and separated chromatographically. The amount of unchanged PGF2 is then compared with the amount of metabolites. The inhibitory effect is evaluated by measurement of the effect in the presence of different amounts of added inhibitor and determination of the concentration (IC50 ) at which 50% inhibition of degradation has been obtained as compared to controls run without inhibitor additions. Very good inhibitors are considered to be those that inhibit PGDH by 50% at a concentration of 10 μM or less. Good inhibitors are considered to be those that inhibit at a concentration of between 10 and 100 μM. Also where a compound has to be classified as less good this will often be compensated in actual practice by other valuable properties, such as for instance a low toxicity or particularly suitable pharmacokinetic properties.
The Table below sets forth IC50 values for a number of compounds according to the invention. For comparison the Table also gives the IC50 value of 5-phenylazo-2-hydroxybenzeneacetic acid which is a known effective PGDH inhibitor described in EP,-A-No. 21229.

Row | Compound | IC50 [µM]
1 | O=C(O)Cc1cc(N=Nc2ccccc2)ccc1O [5-phenylazo-2-hydroxybenzeneacetic acid, reference compound] | 12
2 | O=C(O)Cc1cc(C(=O)c2ccccc2)ccc1O [Example 1, 5-Benzoyl-2-hydroxy-benzeneacetic acid] | 1.4
3 | Cc1cc(C)cc(C(=O)c2ccc(O)c(CC(=O)O)c2)c1 [Example 3, 5-(3,5-Dimethyl-benzoyl)-2-hydroxy-benzeneacetic acid] | 22
4 | O=C(O)Cc1cc(C=Cc2ccccc2)ccc1O [Example 4, 2-Hydroxy-5-(2-phenyl-1-ethenyl)-benzeneacetic acid] | 20
5 | O=C(O)Cc1cc(C(=O)c2ccc(Cl)cc2)ccc1O [Example 5, 2-Hydroxy-5-(4-chlorobenzoyl)-benzeneacetic acid] | 0.6
6 | N#Cc1ccc(C(=O)c2ccc(O)c(CC(=O)O)c2)cc1 [Example 6, 5-(4-Cyanobenzoyl)-2-hydroxy-benzeneacetic acid] | 0.74
7 | O=C(O)Cc1cc(C(=O)c2ccc(C(=O)O)cc2)ccc1O [Example 7, 2-Hydroxy-5-(4-carboxybenzoyl)-benzeneacetic acid] | 1.3
8 | O=C(O)Cc1cc(C(=O)c2ccccc2)cc(Br)c1O [Example 9, 5-Benzoyl-3-bromo-2-hydroxy-benzeneacetic acid] | 42
9 | O=C(O)Cc1cc(C(=O)c2ccccc2F)ccc1O [Example 10, 5-(2-Fluorobenzoyl)-2-hydroxy-benzeneacetic acid] | 0.74
10 | O=C(O)Cc1cc(C(=O)c2ccc(Cl)cc2Cl)ccc1O [Example 11, 5-(2,4-Dichlorobenzoyl)-2-hydroxy-benzeneacetic acid] | 0.21
11 | O=C(O)Cc1cc(C(=O)c2cccc(F)c2)ccc1O [Example 12, 5-(3-Fluorobenzoyl)-2-hydroxy-benzeneacetic acid] | 1.3
12 | O=C(O)Cc1cc(C(=O)Cc2ccccc2)ccc1O [Example 14, 5-(2-Phenylacetyl)-2-hydroxy-benzeneacetic acid] | 56
13 | O=C(O)Cc1cc(C(=O)Cc2ccc(C(=O)O)cc2)ccc1O [Example 15, 2-Hydroxy-5-(2-(4-carboxyphenyl)-acetyl)-benzeneacetic acid] | 1.7

Other lines, results leading:

Row | IC50 [µM] | Compound
14 | 12 | O=C(O)Cc1cc(C(=O)C=Cc2ccccc2)ccc1O [Example 16, 5-(3-Phenyl-1-oxo-2-propenyl)-2-hydroxy-benzeneacetic acid]
15 | 1.4 | O=C(O)Cc1cc(C(=O)C=Cc2ccc(C(=O)O)cc2)ccc1O [Example 17, 2-Hydroxy-5-(3-(4-carboxyphenyl)-1-oxo-2-propenyl)benzeneacetic acid]
16 | 6 | O=C(O)Cc1cc(C(=O)c2cccc(C(=O)O)c2)ccc1O [Example 18, 2-Hydroxy-5-(3-carboxybenzoyl)-benzeneacetic acid]
17 | 4.9 | COC(=O)Cc1cc(C(=O)c2ccc(F)cc2)ccc1O [Example 20, Methyl-5-(4-fluorobenzoyl)-2-hydroxy-benzeneacetate]
18 | 0.58 | O=C(O)Cc1cc(C(=O)c2ccc(F)cc2)ccc1O [Example 21, 5-(4-Fluorobenzoyl)-2-hydroxy-benzeneacetic acid]
19 | 0.38 | O=C(O)Cc1cc(C(=O)c2c(F)cccc2F)ccc1O [Example 25, 5-(2,6-Difluorobenzoyl)-2-hydroxy-benzeneacetic acid]
20 | 1.3 | CC(C)c1ccc(C=CC(=O)c2ccc(O)c(CC(=O)O)c2)cc1 [Example 29, 5-(3-(4-(1-Methyl-ethyl)-phenyl)-1-oxo-2-propenyl)-2-hydroxy-benzeneacetic acid]
21 | 1.9 | COc1ccc(C=CC(=O)c2ccc(O)c(CC(=O)O)c2)cc1 [Example 30, 5-(3-(4-Methoxyphenyl)-1-oxo-2-propenyl)-2-hydroxybenzeneacetic acid]
22 | 0.63 | CC(=O)c1ccc(C(=O)c2ccc(O)c(CC(=O)O)c2)cc1 [Example 32, 5-(4-Acetylbenzoyl)-2-hydroxy-benzeneacetic acid]
23 | 0.4 | O=C(O)Cc1cc(C=Cc2ccc(C(=O)O)cc2)ccc1O [Example 33, 2-Hydroxy-5-(2-(4-carboxyphenyl)-1-ethenyl)-benzeneacetic acid]
